In ChEMBL document CHEMBL5244213, “Current advances in drug discovery for Chagas disease” (Eur J Med Chem, 2018):
pEC50, pIC50: −log10 of the molar value.

Tests used:
[1] = Selectivity index, ratio of IC50 for cytotoxicity against monkey LLC-MK2 cells to IC50 for antitrypanosomal activity against Trypanosoma cruzi Y […] transfected in monkey LLC-MK2 cells; assay type: toxicity, cell-based; details: read-out: Ratio IC50
Trypanosoma cruzi [2] = test: Antitrypanosomal activity against Trypanosoma cruzi Y intracellular amastigote transfected in monkey LLC-MK2 cells assessed as inhibition of intracellular amastigote viability measured after 24 hrs by Neubauer chamber based analysis; assay type: functional, organism-based; details: LLC-MK2, 24 h
[3] = Selectivity index, ratio of IC50 for cytotoxicity against monkey LLC-MK2 cells to IC50 for antitrypanosomal activity against Trypanosoma cruzi Y intracellular amastigote transfected in monkey LLC-MK2 cells; assay type: toxicity, cell-based; details: read-out: Ratio IC50
Trypanosoma cruzi [4] = test: Antitrypanosomal activity against Trypanosoma cruzi Y […] transfected in monkey LLC-MK2 cells assessed as inhibition of […] viability measured after 24 hrs by Neubauer chamber based analysis; assay type: functional, organism-based; details: LLC-MK2, 24 h
Trypanosoma cruzi [5] = test: Antitrypanosomal activity against Trypanosoma cruzi Y […] transfected in African green monkey Vero cells assessed as inhibition of […] viability measured after 48 hrs by DAPI staining based fluorescence microscopic assay; assay type: functional, organism-based
Trypanosoma cruzi [6] = test: Antitrypanosomal activity against Trypanosoma cruzi Sylvio X-10 intracellular amastigotes transfected in African green monkey Vero cells assessed as inhibition of intracellular amastigotes viability measured after 72 hrs by giemsa-staining based analysis; assay type: functional, organism-based; details: Sylvio X-10, Vero
[7] = Selectivity index, ratio of IC50 for cytotoxicity against African green monkey Vero cells to IC50 for antitrypanosomal activity against Trypanosoma cruzi X-10 intracellular amastigotes transfected in African green monkey Vero cells; assay type: toxicity, cell-based; details: read-out: Ratio IC50
[8] = Selectivity index, ratio of IC50 for cytotoxicity against mouse J774.1 cells to IC50 for antitrypanosomal activity against Trypanosoma cruzi Tulahuen 2 […]; assay type: toxicity, cell-based; details: read-out: Ratio IC50
Trypanosoma cruzi [9] = test: Antitrypanosomal activity against Trypanosoma cruzi Tulahuen 2 intracellular epimastigotes assessed as viability of […] measured after 5 days by absorbance based analysis; assay type: functional, organism-based; details: Tulahuen 2, 120 h
Trypanosoma cruzi [10] = test: Antitrypanosomal activity against Trypanosoma cruzi Y intracellular amastigotes assessed as inhibition of intracellular amastigotes viability at 10 uM measured after 72 hrs relative to control; assay type: functional
Trypanosoma cruzi [11] = test: Antitrypanosomal activity against Trypanosoma cruzi […] assessed as inhibition of […] viability; assay type: functional, organism-based
[12] = Selectivity index, ratio of IC50 for cytotoxicity against African green monkey Vero cells to IC50 for antitrypanosomal activity against Trypanosoma cruzi Dm28c […] transfected in African green monkey Vero cells; assay type: toxicity, cell-based; details: read-out: Ratio IC50
[13] = Selectivity index, ratio of IC50 for cytotoxicity against African green monkey Vero cells to IC50 for antitrypanosomal activity against Trypanosoma cruzi Dm28c intracellular amastigotes transfected in African green monkey Vero cells; assay type: toxicity, cell-based; details: read-out: Ratio IC50
Trypanosoma cruzi [14] = test: Antitrypanosomal activity against Trypanosoma cruzi Dm28c […] transfected in African green monkey Vero cells assessed as inhibition of […] viability measured after 24 hrs by MTT assay; assay type: functional, organism-based
Trypanosoma cruzi [15] = test: Antitrypanosomal activity against Trypanosoma cruzi Dm28c intracellular amastigotes transfected in African green monkey Vero cells assessed as inhibition of intracellular amastigotes viability measured after 24 hrs by MTT assay; assay type: functional, organism-based
Trypanosoma cruzi [16] = test: Antitrypanosomal activity against Trypanosoma cruzi Tulahuen CL2 intracellular amastigotes transfected in human MRC5 cells assessed as inhibition of intracellular amastigotes viability using […] substrate measured after 7 days by chlorophenol red […] staining based analysis; assay type: functional, organism-based; details: Tulahuen CL2, MRC5, 168 h

Structure (SMILES): N/C(S)=N/N=C/c1ccc([N+](=O)[O-])cc1
- selectivity ratio [1]: 26.2
- pIC50 (Trypanosoma cruzi [2]): 4.93
- selectivity ratio [3]: 11.6
- pIC50 (Trypanosoma cruzi [4]): 5.84

Structure (SMILES): O=C(OCCCCCCCCCCCC[P+](c1ccccc1)(c1ccccc1)c1ccccc1)c1cc(O)c(O)c(O)c1
- pEC50 (Trypanosoma cruzi [5]): 6.00

Structure (SMILES): O=C(OCCCCCCCCCC[P+](c1ccccc1)(c1ccccc1)c1ccccc1)c1cc(O)c(O)c(O)c1
- pEC50 (Trypanosoma cruzi [5]): 6.00

Structure (SMILES): C=CCn1c(C(=O)N2CCN(C/C=C/c3ccccc3)CC2)cs\c1=N/N=C/C=C/c1ccco1
- pIC50 (Trypanosoma cruzi [6]): 6.15
- selectivity ratio [7]: 433

Structure (SMILES): O=C(CS/C(C(=O)c1ccc2ccccc2c1)=C1\C=C(c2ccc(O)cc2)SS1)c1ccc2ccccc2c1
- selectivity ratio [8]: 12.8
- pIC50 (Trypanosoma cruzi [9]): 5.31

Structure (SMILES): COc1cccc(Nc2c(C#N)cnc3ccc(Cl)cc23)c1
- inhibition at 10 µM (Trypanosoma cruzi [10]): 65%
- pIC50 (Trypanosoma cruzi [11]): > 6.00

Structure (SMILES): CC1(C(CC(=O)/C=C/c2ccccc2)c2ccccc2)N=C(c2ccccc2)OC1=O (configuration not stated)
- selectivity ratio [12]: 6.74
- selectivity ratio [13]: 95
- pIC50 (Trypanosoma cruzi [14]): 4.48
- pIC50 (Trypanosoma cruzi [15]): 5.63

Structure (SMILES): CCOc1cccc2sc(N(Cc3cccnc3)C(=O)C3CCCCC3)nc12
- pIC50 (Trypanosoma cruzi [16]): 6.80
